Results from patent US20160310467A1, “ONDANSETRONE TO REVERSAL OF THE SOFT TISSUE ANESTHESIA” (priority 2015, published 2016).

Experiments:
[1] = reversal of the local anesthesia effect by applying ondansetrone to the same soft tissue area; format: in vivo; details: ondansetrone applied to the same area where local anesthesia is applied; dose according to patient and to type and dosage of local anesthetic
From the text: Invention is about the reversal of the effect of the local anesthetic applied to the soft tissue, in a short time period by applying ondansetrone, which is a 5-hydroxytriptamine (5-HT3) antagonist, to the same area. And it is also about the removal of the problems encountered by local anesthesia.
Anesthesia implementations can be classified as local anesthesia, regional anesthesia and general anesthesia. Local anesthesia is the temporarily blockage of carrying the painful stimulations by nerve tracks. Only the surgery area is anesthetized with the local anesthesia. […] Local anesthesia effect can last from as few hours up to five hours. During that period, the problems that patient has to face because of being effected by local anesthesia are described in detail in the prior art section. The solution of these problems is reversal of the effect of the local anesthesia by the doctor in a short time after finishing the operation. Because of the effects of the local anesthetics can take hours to be removed by their selves. In the studies of mine about reversal of that local anesthesia effect, ondansetrone, which is a 5-hidroksitriptamin (5-HT3) antagonist, is implemented to the same area according to patient's situation (age, weight, sensitivity etc.) and to type and dosage of local anesthetic were local anesthesia is applied. […]

[2] = cited from earlier work
[3] = spinal anesthesia with bupivacaine; cited from earlier work

SMILES | reversal of the effect of the local anesthetic [1] | regression of the sensorial block level ([2]; subarachnoid anesthesia by lidocaine) | effect on sensorial block level ([2]; subarachnoid anesthesia by ropivacaine) | reversal of the sensorial block [3]
Cc1nccn1CC1CCc2c(c3ccccc3n2C)C1=O (stereo not shown) [ondansetrone] | antagonizes the effect of the local anesthetic in a short time (a few minutes) | accelerates the regression of the sensorial block level | no effect in sensorial block level | –
CN1C2CCCC1CC(NC(=O)c1nn(C)c3ccccc13)C2 (stereo not shown) [granisetron] | – | – | – | accelerates the reversal of the sensorial block
